The subject of one assay is MCF-7 cancer cell line. Nature of the assay: MTT assay, anticancer activity against MCF-7. The format is cell-based. The conditions noted are these: Homo sapiens. On the technique in general: Tetrazolium assays rely on reduction of a dye to a coloured formazan, in cell work by metabolically active cells.
The next assay deals with HepG2 cancer cell line. Nature of the assay: MTT assay, anticancer activity against HepG2. The assay is classed as cell-based. The conditions noted are these: Homo sapiens.
Another assay has as its system HCT-116 cancer cell line. Nature of the assay: MTT assay, anticancer activity against HCT-116. The format is cell-based. The conditions noted are these: Homo sapiens.
The next assay addresses T1, COX-1 (Ovis aries, UniProt P05979).
T1 sequence (P05979 25-600): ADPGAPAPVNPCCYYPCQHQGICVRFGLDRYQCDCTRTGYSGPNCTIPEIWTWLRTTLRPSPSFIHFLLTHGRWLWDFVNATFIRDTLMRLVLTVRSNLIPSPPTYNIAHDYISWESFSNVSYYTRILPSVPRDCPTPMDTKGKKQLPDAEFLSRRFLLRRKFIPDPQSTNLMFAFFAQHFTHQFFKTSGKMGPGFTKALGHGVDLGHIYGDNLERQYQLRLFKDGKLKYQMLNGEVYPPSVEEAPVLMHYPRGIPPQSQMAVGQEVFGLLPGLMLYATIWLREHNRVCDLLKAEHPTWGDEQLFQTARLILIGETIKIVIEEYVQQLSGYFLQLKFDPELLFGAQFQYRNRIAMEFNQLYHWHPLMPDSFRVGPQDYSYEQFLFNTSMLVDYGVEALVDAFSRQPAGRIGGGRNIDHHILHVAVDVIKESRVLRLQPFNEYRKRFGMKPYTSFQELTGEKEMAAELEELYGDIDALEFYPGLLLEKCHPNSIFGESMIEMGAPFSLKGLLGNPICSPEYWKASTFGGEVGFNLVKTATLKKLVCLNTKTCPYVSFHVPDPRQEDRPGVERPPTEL
Nature of the assay: In vitro cyclooxygenase. The format is biochemical, ovine.

A further assay has as its target T2, COX-2 (Ovis aries, UniProt P79208).
T2 sequence (P79208 17-603): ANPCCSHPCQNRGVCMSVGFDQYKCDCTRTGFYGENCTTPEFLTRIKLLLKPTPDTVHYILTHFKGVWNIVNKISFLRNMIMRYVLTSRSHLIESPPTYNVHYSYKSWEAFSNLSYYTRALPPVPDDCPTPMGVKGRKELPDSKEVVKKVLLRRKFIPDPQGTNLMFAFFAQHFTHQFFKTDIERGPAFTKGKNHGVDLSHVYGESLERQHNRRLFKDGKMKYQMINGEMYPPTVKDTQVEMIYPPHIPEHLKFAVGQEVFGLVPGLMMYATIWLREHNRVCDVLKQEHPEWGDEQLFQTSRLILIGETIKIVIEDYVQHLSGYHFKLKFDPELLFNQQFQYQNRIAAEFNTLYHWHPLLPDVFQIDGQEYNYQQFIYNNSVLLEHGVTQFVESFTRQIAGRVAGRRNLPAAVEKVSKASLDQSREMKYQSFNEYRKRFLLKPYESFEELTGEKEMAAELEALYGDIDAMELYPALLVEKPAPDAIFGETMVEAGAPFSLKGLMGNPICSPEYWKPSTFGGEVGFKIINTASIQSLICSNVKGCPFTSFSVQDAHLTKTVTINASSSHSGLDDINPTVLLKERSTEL
As to the kind of experiment: In vitro cyclooxygenase. The format is biochemical, ovine.

The target of the next assay is EGFR (Homo sapiens, UniProt P00533). As to the kind of experiment: In vitro EGFR-TK inhibition assay. The format is biochemical.
Sequence of EGFR (P00533 25-1210): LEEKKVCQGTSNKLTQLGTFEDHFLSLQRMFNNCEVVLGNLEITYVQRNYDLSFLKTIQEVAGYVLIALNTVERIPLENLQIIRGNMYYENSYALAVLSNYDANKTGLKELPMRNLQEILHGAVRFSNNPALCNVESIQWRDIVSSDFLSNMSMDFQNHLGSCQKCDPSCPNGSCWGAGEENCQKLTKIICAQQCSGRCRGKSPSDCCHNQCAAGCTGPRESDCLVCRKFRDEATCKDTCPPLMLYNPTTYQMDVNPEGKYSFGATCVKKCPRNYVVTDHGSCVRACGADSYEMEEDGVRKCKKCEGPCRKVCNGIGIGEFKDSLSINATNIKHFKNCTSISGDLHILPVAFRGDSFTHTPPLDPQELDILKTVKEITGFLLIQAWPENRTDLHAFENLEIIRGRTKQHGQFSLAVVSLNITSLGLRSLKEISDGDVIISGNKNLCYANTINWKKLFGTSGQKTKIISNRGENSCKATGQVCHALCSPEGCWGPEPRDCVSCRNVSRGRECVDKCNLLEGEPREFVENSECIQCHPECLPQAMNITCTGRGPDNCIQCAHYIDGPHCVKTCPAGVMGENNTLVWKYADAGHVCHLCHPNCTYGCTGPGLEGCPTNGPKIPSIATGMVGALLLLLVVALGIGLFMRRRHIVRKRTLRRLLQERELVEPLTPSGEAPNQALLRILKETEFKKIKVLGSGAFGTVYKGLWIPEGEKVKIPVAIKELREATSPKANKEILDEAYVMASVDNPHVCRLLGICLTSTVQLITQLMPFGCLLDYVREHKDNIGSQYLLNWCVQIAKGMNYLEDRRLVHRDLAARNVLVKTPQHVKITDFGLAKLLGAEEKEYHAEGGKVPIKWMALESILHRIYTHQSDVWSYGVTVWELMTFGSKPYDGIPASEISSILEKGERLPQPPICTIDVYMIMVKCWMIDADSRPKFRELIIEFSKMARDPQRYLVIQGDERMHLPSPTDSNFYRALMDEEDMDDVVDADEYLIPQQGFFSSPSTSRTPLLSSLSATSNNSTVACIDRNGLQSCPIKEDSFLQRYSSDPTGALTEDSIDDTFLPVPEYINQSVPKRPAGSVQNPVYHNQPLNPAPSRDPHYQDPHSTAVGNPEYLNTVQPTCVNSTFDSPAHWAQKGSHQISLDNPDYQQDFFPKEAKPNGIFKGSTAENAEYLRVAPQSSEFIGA
Assay [1] deals with MCF-7, HepG2 and HCT-116 cancer cell lines. Nature of the assay: MTT assay, statements over the three cancer cell lines together. The format is cell-based.

Broadly, the IC50 is the concentration needed to halve the response being measured. In general, inhibition refers to the change of the read-out against control, counted positive when it falls. As to `Cn1c(=O)c(C(=O)N/N=C2\C(=O)Nc3ccccc32)nc2ccccc21` [Compound 4a, (Z)-4-Methyl-3-oxo-N′-(2-oxoindolin-3-ylidene)-3,4-dihydroquinoxaline-2-carbohydrazide], the 50% inhibitory concentration (IC50) in the assay with MCF-7 cancer cell line (MCF7, 48 h, read-out: Anticancer activity IC50) is 4.42 ± 0.12 µM; in the assay with HepG2 cancer cell line (HepG2, 48 h, read-out: Anticancer activity IC50), 4.23 ± 0.09 µM; in the assay on HCT-116 cancer cell line (HCT-116, 48 h, read-out: Anticancer activity IC50) it was 4.54 ± 0.19 µM; at COX-1, 28.8 ± 1.02 µM; at COX-2, 1.17 ± 0.15 µM; against EGFR, 0.3 ± 0.01 µM. The IC50 in assay [1] (read-out: Anticancer activity IC50 against the three cancer cell lines) lay in the range of 3.21 to 4.54 µM. Also, the inhibition at 10 µM with MCF-7 cancer cell line (MCF7, read-out: Cell growth inhibition (GI%)) is 90.14 ± 0.76%; in the assay on HepG2 cancer cell line (HepG2, read-out: Cell growth inhibition (GI%)) it was 91.82 ± 0.35%; in the assay on HCT-116 cancer cell line (HCT-116, read-out: Cell growth inhibition (GI%)) it was 92.79 ± 0.15%; in assay [1] (read-out: Growth inhibition against the three cancer cell lines), at least 88.7%. Also, on COX-2 (IC50 (COX-1)/IC50 (COX-2)), the “SI (selectivity index)” value is on record as 24.61.
